Data from ChEMBL document CHEMBL5505957 (Eur J Med Chem, 2024).
Values after ≈ are worked out from the molar mass of the structure shown.

Columns and labels:
Aspergillus fumigatus [1] = assay: Antimicrobial activity against Aspergillus fumigatus assessed as fungal growth inhibition
Aspergillus fumigatus [2] = assay: Antifungal activity against Aspergillus fumigatus by CLSI based broth microdilution method
[3] = test system: Human immunodeficiency virus 1; assay: microbe, parasite or virus in culture; details: Human immunodeficiency virus 1, C8166
[4] = Inhibition of Serratia marcescens Chitinase B
[5] = molecular target: T1, Human immunodeficiency virus type 1 protease (Human immunodeficiency virus 1, UniProt Q72874)
Rattus norvegicus = assay: Anti-inflammatory activity against carrageenan-induced paw edema in Sprague-Dawley rat assessed as inhibition of paw edema
[6] = molecular target: T1, Human immunodeficiency virus type 1 protease; assay: Binding affinity to HIV-1 protease assessed as inhibition constant
Protein O-GlcNAcase = molecular target: T2, Protein O-GlcNAcase (Homo sapiens, UniProt O60502)
T2 sequence (O60502 whole entry): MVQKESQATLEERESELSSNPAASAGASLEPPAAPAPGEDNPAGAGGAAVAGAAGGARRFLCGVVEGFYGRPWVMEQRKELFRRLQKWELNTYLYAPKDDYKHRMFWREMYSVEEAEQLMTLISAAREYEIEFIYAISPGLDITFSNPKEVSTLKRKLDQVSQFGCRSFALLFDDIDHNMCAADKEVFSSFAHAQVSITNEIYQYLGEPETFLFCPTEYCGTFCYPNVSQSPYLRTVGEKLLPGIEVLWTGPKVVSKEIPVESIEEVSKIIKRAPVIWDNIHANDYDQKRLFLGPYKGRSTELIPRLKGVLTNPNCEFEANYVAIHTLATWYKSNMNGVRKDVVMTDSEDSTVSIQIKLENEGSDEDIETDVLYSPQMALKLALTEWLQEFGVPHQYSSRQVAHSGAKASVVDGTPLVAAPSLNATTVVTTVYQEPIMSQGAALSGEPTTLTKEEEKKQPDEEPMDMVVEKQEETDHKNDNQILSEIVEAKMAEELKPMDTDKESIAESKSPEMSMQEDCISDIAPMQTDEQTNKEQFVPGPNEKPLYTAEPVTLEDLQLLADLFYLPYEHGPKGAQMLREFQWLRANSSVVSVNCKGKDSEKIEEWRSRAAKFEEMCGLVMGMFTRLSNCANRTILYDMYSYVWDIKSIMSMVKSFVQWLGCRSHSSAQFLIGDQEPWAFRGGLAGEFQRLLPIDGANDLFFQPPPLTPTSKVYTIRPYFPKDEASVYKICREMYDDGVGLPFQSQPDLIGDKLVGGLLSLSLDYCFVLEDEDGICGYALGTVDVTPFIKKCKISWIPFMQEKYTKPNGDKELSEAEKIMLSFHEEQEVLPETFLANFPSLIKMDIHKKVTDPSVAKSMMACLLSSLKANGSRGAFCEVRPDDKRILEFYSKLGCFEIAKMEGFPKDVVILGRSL

[7] = test system: Human immunodeficiency virus 1; assay: microbe, parasite or virus in culture; details: Human immunodeficiency virus 1, C8166; remark: listed apart in the source
[8] = test system: Human immunodeficiency virus 1; assay: Antiviral activity against HIV-1 infected in human MT4 cells assessed as inhibition of virus-induced cytopathic effect measured after 5 days by spectrophotometric MTT assay; details: Human immunodeficiency virus 1, MT4, 120 h
[9] = Inhibition of Serratia marcescens Chitinase A
[10] = test system: Human immunodeficiency virus 1; assay: Anti-HIV activity against wild type HIV-1 IIIB infected in human MT4 cells assessed as inhibition of virus-induced cytopathic effect incubated for 5 days by MTT assay; details: Human immunodeficiency virus 1, IIIB, MT4, 120 h
[11] = Cytotoxicity against MDCK cells assessed as reduction in cell viability incubated for 48 hrs by MTT assay; details: dog
Cholinesterase = Cholinesterase (Equus caballus, UniProt P81908); assay: Inhibition of equine serum BuChE using butyrylthiocholine chloride as substrate by Ellman's method
Sequence of Cholinesterase (P81908 whole entry): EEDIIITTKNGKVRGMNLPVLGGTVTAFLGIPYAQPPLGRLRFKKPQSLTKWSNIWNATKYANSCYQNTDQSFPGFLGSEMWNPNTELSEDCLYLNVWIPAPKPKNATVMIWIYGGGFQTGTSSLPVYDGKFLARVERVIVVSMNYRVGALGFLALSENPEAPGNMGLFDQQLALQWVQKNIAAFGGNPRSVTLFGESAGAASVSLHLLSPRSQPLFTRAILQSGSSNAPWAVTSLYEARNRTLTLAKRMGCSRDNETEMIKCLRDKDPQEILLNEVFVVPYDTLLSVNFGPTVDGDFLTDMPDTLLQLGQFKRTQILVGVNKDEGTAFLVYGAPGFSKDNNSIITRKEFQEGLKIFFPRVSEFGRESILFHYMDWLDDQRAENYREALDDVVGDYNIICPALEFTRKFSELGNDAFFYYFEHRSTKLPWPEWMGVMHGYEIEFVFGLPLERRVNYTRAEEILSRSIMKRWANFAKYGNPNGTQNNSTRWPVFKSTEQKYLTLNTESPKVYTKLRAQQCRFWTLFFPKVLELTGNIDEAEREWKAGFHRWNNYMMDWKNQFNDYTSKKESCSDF

[12] = molecular target: T3, M-phase inducer phosphatase 3 (Homo sapiens, UniProt P30307); assay: Inhibition of full-length recombinant human CDC25C incubated for 5 to 8 mins by fluorescence based assay
T3 sequence (P30307 whole entry): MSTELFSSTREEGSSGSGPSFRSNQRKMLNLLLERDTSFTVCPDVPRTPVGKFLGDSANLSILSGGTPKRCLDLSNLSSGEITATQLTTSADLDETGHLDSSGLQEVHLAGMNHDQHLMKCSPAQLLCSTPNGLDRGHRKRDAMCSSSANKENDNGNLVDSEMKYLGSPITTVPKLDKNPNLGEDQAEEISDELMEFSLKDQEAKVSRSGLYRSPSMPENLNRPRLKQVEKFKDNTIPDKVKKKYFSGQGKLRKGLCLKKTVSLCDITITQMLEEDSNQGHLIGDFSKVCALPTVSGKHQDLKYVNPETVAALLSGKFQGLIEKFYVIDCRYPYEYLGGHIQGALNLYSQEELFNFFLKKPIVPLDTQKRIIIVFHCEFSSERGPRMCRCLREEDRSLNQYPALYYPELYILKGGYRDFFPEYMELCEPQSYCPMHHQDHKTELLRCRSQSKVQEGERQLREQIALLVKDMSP

[13] = Inhibition of Influenza A virus H1N1 neuraminidase
[14] = Cytotoxicity against African green monkey Vero E6 cells assessed as reduction in cell viability measured after 72 hrs by MTS assay
[15] = molecular target: Replicase polyprotein 1ab (Severe acute respiratory syndrome coronavirus 2, UniProt P0DTD1)

C=CCc1ccc(OCc2cn([C@H]3O[C@H](COC(C)=O)[C@@H](OC(C)=O)[C@H](OC(C)=O)[C@H]3OC(C)=O)nn2)c(OC)c1
MIC (Aspergillus fumigatus [1]): 10.9 µM (≈ 6.25 µg/mL) | IC50 (Aspergillus fumigatus [2]): 5420 nM

COc1ccc(S(=O)(=O)N(CC(C)C)C[C@@H](O)[C@H](Cc2ccccc2)n2cc(CNC(=O)N[C@H]3c4ccccc4C[C@H]3O)nn2)cc1
IC50 [3]: 46 nM

CNC(=O)NC(=O)NCCC[C@@H](NC(=O)CN)C(=O)N(Cc1ccccc1)Cc1ccccc1
IC50 [4]: 580 nM

COC(=O)[C@@H](NC(=O)OCc1cn([C@@H](Cc2ccccc2)[C@H](O)CN(CC(C)C)S(=O)(=O)c2ccc(OC)cc2)nn1)c1ccccc1
IC50 [5]: 10 nM

Cc1cc(-n2cc(-c3ccc(N)cc3)nn2)n(-c2ccc(S(C)(=O)=O)cc2)n1
ED50 (Rattus norvegicus): 0.12 mg/kg

COc1ccc(S(=O)(=O)N(CC(C)C)C[C@@H](O)C(Cc2ccccc2)n2cc(COC(=O)NC3c4ccccc4C[C@H]3O)nn2)cc1 (single isomer, unassigned)
IC50 [5]: 6 nM | Ki [6]: 1.7 nM

CO[C@@H]1O[C@H](CO)[C@@H](O)[C@H](O)[C@H]1n1cc(COc2ccccc2)nn1
IC50 (Protein O-GlcNAcase): 720 nM

COc1ccc(S(=O)(=O)N(CC(C)C)C[C@@H](O)[C@H](Cc2ccccc2)n2cc(CNC(=O)c3ccc(CNC(=O)OC(C)(C)C)cc3)nn2)cc1
IC50 [3]: 52 nM | IC50 [7]: 17 nM

Cc1c(Cc2c(Cl)cccc2Cl)nc(SCc2cn(Cc3ccc(S(N)(=O)=O)cc3)nn2)[nH]c1=O
EC50 [8]: 3220 nM

CNC(=O)NC(=N)NCCC[C@@H]1NC(=O)[C@@H](C)NC(=O)C[C@@H](C(=O)O)NC(=O)C[C@@H](C(=O)O)NC(=O)[C@H](Cc2ccccc2)N(C)C1=O [ARGIFIN]
IC50 [4]: 6400 nM | IC50 [9]: 25 nM

COc1ccc(S(=O)(=O)N(CC(C)C)C[C@@H](O)[C@H](Cc2ccccc2)n2cc(CNC(=O)c3ccncc3)nn2)cc1
IC50 [5]: 10 nM

CO[C@@H]1O[C@H](CO)[C@@H](O)[C@H](O)[C@H]1n1cc(CNc2ccccc2)nn1
IC50 (Protein O-GlcNAcase): 520 nM

COC(=O)c1ccc(-n2cc(-c3cc(C)c(Oc4ccnc(Nc5ccc(C#N)cc5)n4)c(C)c3)nn2)cc1
IC50 [10]: 13 nM

Cc1[nH]c(=O)[nH]c(=O)c1CCCc1cn(C2OC(CO)C(O)C2O)nn1 (configuration not stated)
CC50 at 48 h [11]: 79000 nM

O=C(CCCCC1CCSS1)NCc1cn(CCCCOc2ccc3c(c2)OCCC3=O)nn1 (configuration not stated)
IC50 (Cholinesterase): 7550 nM

CC(NC1=C(Cl)C(=O)c2cccnc2C1=O)c1cn(Cc2ccc(CO)cc2)nn1 (configuration not stated)
IC50 [12]: 60 nM

Cc1cc(-n2cc(-c3ccc(F)cc3)nn2)n(-c2ccc(S(C)(=O)=O)cc2)n1
ED50 (Rattus norvegicus): 0.44 mg/kg

CC(=O)O[C@H]1[C@H](OCc2cn(CC3=NCCS3)nn2)OC[C@@H](OC(C)=O)[C@H]1OC(C)=O
IC50 [13]: 1640 nM

CC1=NN(c2ccc(Cl)cc2)C(=O)/C1=C\c1ccc(OCc2cn(CC(=O)NCc3ccc(C(=O)O)cc3)nn2)cc1
IC50 at 72 h [14]: 22100 nM | IC50 [15]: 3160 nM

CNC(=O)NC(=N)NCCC[C@@H](NC(=O)Cn1nncc1CO/N=C/c1ccnc2ccccc12)C(=O)N(Cc1ccccc1)Cc1ccccc1
IC50 [4]: 22 nM

CO[C@@H]1O[C@H](CO)[C@@H](O)[C@H](O)[C@H]1n1cc(CCc2ccccc2)nn1
IC50 (Protein O-GlcNAcase): 500 nM

COC(=O)[C@@H](C)NP(=O)(OCC1OC(n2cc(CN3CCC(=O)NC3=O)nn2)C(O)C1O)Oc1ccccc1 (some centres not stated)
IC50 [13]: 25000 nM
